Several values for one entry are separate records, joined by “and”; a condition that tells them apart may be missing. Identical values can stand only once. Counter-ions that a name gives are not always drawn.
Assays:
Proteus mirabills = experiment: Activity in vitro and in clinical infections; format: cell-based
[1] = Pharmacokinetics in renally impaired patients; format: in vivo, human; conditions: single doses
[2] = test system: uncomplicated urinary tract infection; experiment: Example 4: evening dosing in uncomplicated urinary tract infection; format: in vivo, human; conditions: 200 mg at night for 3 nights
Description: Patients with uncomplicated urinary tract infection were randomized to receive lomefloxacin HCl 200 mg taken at night for 3 nights and trimethoprim in a double-blind study.

[3] = Example 5: lomefloxacin plasma concentrations; conditions: for concentration at 14 h: Hour 14, mean; for plasma concentration, Hour 86: 72 hours following last active dose
Escherichia coli = experiment: Activity in vitro and in clinical infections; format: cell-based
skin = conditions: humans and animals; cited from earlier work
[4] = test system: skin of healthy volunteers; conditions: in vivo
Description: The number of skin patches with edema, or local swelling of the skin surface, were also counted. MEDs were measured separately for UVA and UVB radiation, and for UVA radiation alone. The baseline MED was defined in the manner described hereinabove. The 24 hour evaluation was allowed to be performed in the morning of Study Day 1. Severity of reactions causing edema and/or blisters were graded under the following grading system:
Severity was assessed by comparing the numbers of subjects with responses graded as 2 (edema) or 3 (blisters).

patients = experiment: Clinical trials, adverse events; format: in vivo, human
From the text: Photosensitivity and/or phototoxicity reactions have been reported in clinical trials of lomefloxacin HCl to varying degrees. […] These photosensitivity and/or phototoxicity reactions have also occurred in subjects exposed to shaded or diffuse light, including exposure through glass.
In clinical trials, most of the adverse events reported were mild to moderate in severity and transient in nature. During these clinical investigations, 2869 patients received MAXAQUIN®. In 2.6% of the patients, lomefloxacin was discontinued because of adverse events, primarily involving the gastrointestinal system (0.7%), skin (1.0%), or central nervous system (0.5%). The adverse clinical events with the highest incidence (≥1%) in patients, regardless of relationship to drug, were nausea (3.7%), headache (3.2%), photosensitivity (2.4%), dizziness (2.3%), and diarrhea (1.4%).

[5] = test system: gram-negative and gram-positive organisms; experiment: Bactericidal activity in vitro, MBC relative to MIC; format: cell-based
Pseudomonas aeruginosa = experiment: Activity in vitro and in clinical infections; format: cell-based
[6] = test system: skin of healthy volunteers; experiment: Example 5: regression of delayed MEDUVA on plasma concentration
From the text: The relationship between plasma concentration at time of irradiation and delayed MEDUVA was explored using regression analysis by testing the equality of the slopes of the regression of delayed MEDUVA on plasma concentration, obtaining estimates of the parameters of the regression line, and determining the correlation coefficient.

[7] = human, plasma, mean, a.m. dosing
[8] = human, plasma, mean, p.m. dosing
[9] = regardless of relationship to drug

## CCn1cc(C(=O)O)c(=O)c2cc(F)c(N3CCNC(C)C3)c(F)c21 (racemic) [lomefloxacin HCl, monohydrochloride salt of (±)-1-ethyl-6,8-difluoro-1,4-dihydro-7-(3-methyl-1-piperazinyl)-4-oxo-3-quinolinecarboxylic acid]
Proteus mirabills
  activity against most strains: active against most strains
[1]
  peak concentrations versus renal function: not affected by the degree of renal function
[2]
  overall incidence of adverse events: 18%
  photosensitivity reactions: no photosensitivity reactions reported
[2]; 7-9 days posttreatment
  clinical success in evaluable patients: 98.1%
[3]; [7]
  AUC: 47000 ng·h/mL
  Cmax: 3000 ng/mL
[3]; [8]
  AUC: 40000 ng·h/mL
  Cmax: 2900 ng/mL
[3]; human, plasma, Tmax, mean, a.m. dosing, sample hour scale
  Tmax: 14.9 h
[3]; human, plasma, Tmax, mean, p.m. dosing
  Tmax: 2.9 h
[3]; human, plasma, plasma concentration, Hour 2, mean, mean, a.m. dosing, 12 hours prior to last active dose
  concentration at 2 h: 1100 ng/mL
[3]; human, plasma, plasma concentration, Hour 2, mean, mean, p.m. dosing, 2 hours following last active dose
  concentration at 2 h: 2900 ng/mL
[3]; human, plasma, plasma concentration, mean, a.m. dosing, immediately prior to last active dose
  concentration at 14 h: 300 ng/mL
[3]; human, plasma, plasma concentration, mean, p.m. dosing, 14 hours following last active dose
  concentration at 14 h: 1000 ng/mL
[3]; human, plasma, plasma concentration, Hour 16, individual subjects, a.m. dosing, 2 hours following last active dose
  concentration at 2 h: 2920 ng/mL
[3]; human, plasma, plasma concentration, Hour 16, mean, mean, a.m. dosing, 2 hours following last active dose
  concentration at 2 h: 3100 ng/mL
[3]; human, plasma, plasma concentration, Hour 16, mean, mean, p.m. dosing, 16 hours following last active dose
  concentration at 16 h: 800 ng/mL
[3]; human, plasma, plasma concentration, Hour 19, individual subjects, a.m. dosing, 5 hours following last active dose
  concentration at 5 h: 1850 ng/mL
[3]; human, plasma, plasma concentration, Hour 19, mean, mean, a.m. dosing, 5 hours following last active dose
  concentration at 5 h: 2200 ng/mL
[3]; human, plasma, plasma concentration, Hour 19, mean, mean, p.m. dosing, 19 hours following last active dose
  concentration at 19 h: 600 ng/mL
[3]; human, plasma, plasma concentration, Hour 38, mean, mean, a.m. dosing, 24 hours following last active dose
  concentration at 24 h: 300 ng/mL
[3]; human, plasma, plasma concentration, Hour 38, mean, mean, p.m. dosing, 38 hours following last active dose
  concentration at 38 h: 100 ng/mL
[3]; individual subjects, a.m. dosing, 2 hours following last active dose, 120 min
  plasma concentration, Hour 16: 2420 ng/mL and 3160 ng/mL and 3730 ng/mL and 3000 ng/mL and 3660 ng/mL and 2650 ng/mL and 2840 ng/mL and 2950 ng/mL and 3050 ng/mL and 2940 ng/mL and 4040 ng/mL and 2580 ng/mL
[3]; individual subjects, a.m. dosing, 5 hours following last active dose, 300 min
  plasma concentration, Hour 19: 1710 ng/mL and 1810 ng/mL and 2370 ng/mL and 2360 ng/mL and 2280 ng/mL and 1780 ng/mL and 2060 ng/mL and 1750 ng/mL and 1720 ng/mL and 2880 ng/mL and 3060 ng/mL and 2390 ng/mL
[3]; individual subjects, a.m. dosing, 12 hours prior to last active dose, 120 min
  plasma concentration, Hour 2: 786 ng/mL and 1030 ng/mL and 889 ng/mL and 1460 ng/mL and 1360 ng/mL and 711 ng/mL and 1090 ng/mL and 840 ng/mL and 915 ng/mL and 1200 ng/mL and 1280 ng/mL and 1110 ng/mL and 1500 ng/mL
[3]; individual subjects, a.m. dosing, 14 hours prior to last active dose
  plasma concentration, Hour 0: 1160 ng/mL and 1060 ng/mL and 1540 ng/mL and 1520 ng/mL and 1350 ng/mL and 901 ng/mL and 1370 ng/mL and 1080 ng/mL and 1180 ng/mL and 1720 ng/mL and 1360 ng/mL and 1800 ng/mL
[3]; individual subjects, a.m. dosing, 24 hours following last active dose, 1440 min
  plasma concentration, Hour 38: 230 ng/mL and 318 ng/mL and 281 ng/mL and 346 ng/mL and 467 ng/mL and 319 ng/mL and 251 ng/mL and 361 ng/mL and 201 ng/mL and 157 ng/mL and 258 ng/mL and 263 ng/mL and 367 ng/mL
[3]; individual subjects, a.m. dosing, 48 hours following last active dose, 2880 min
  plasma concentration, Hour 62: 39 ng/mL and 64 ng/mL and 27 ng/mL and 54 ng/mL and 73 ng/mL and 35 ng/mL and 53 ng/mL and 21 ng/mL and 16 ng/mL and 36 ng/mL
[3]; individual subjects, a.m. dosing
  plasma concentration, Hour 86: 0 ng/mL
[3]; individual subjects, a.m. dosing, 4320 min
  plasma concentration, Hour 86: 11 ng/mL and 16 ng/mL and 6 ng/mL and 13 ng/mL and 19 ng/mL and 7 ng/mL and 9 ng/mL and 17 ng/mL
[3]; individual subjects, a.m. dosing, immediately prior to last active dose, 840 min
  plasma concentration, Hour 14: 271 ng/mL and 368 ng/mL and 243 ng/mL and 385 ng/mL and 479 ng/mL and 297 ng/mL and 210 ng/mL and 350 ng/mL and 204 ng/mL and 279 ng/mL and 317 ng/mL and 283 ng/mL and 419 ng/mL
[3]; individual subjects, a.m. dosing, sample hour scale
  Tmax: 16 h and 0 h
[3]; individual subjects, p.m. dosing
  Tmax: 14 h
[3]; mean, a.m. dosing, 14 hours prior to last active dose
  plasma concentration, Hour 0, mean: 1300 ng/mL
Escherichia coli
  activity against most strains: active against most strains
skin
  photoreactions of quinolones: dose-dependent, drug-induced, UVA required photosensitivity reaction
[4]
  severity of UVA+UVB radiation-induced photoreactions versus baseline: no change
  subjects with edema or blisters on the sites of radiation, UVA: sixty-nine
patients; 2869 patients
  discontinued because of adverse events: 2.6%
  discontinued because of adverse events, central nervous system: 0.5%
  discontinued because of adverse events, gastrointestinal system: 0.7%
  discontinued because of adverse events, skin: 1.0%
patients; clinical trials
  incidence of photosensitivity: 2.4%
patients; patients exposed to sunlight or artificial ultraviolet light
  photosensitivity and/or phototoxic reactions: Moderate to severe photosensitivity and/or phototoxic reactions have occurred
patients; [9]
  incidence of diarrhea: 1.4%
  incidence of dizziness: 2.3%
  incidence of headache: 3.2%
  incidence of nausea: 3.7%
[5]; generally, except staphylococci
  MBC relative to MIC: ≤ 2 factor
[5]; in vitro
  antibacterial activity: bactericidal agent with in vitro activity against a wide range of gram-negative and gram-positive organisms
Pseudomonas aeruginosa
  activity against most strains: active against most strains
[6]; in vivo
  correlation coefficient, plasma concentration vs delayed MEDUVA: -0.72
[6]; p<0.001
  slope of regression of delayed MEDUVA on plasma concentration: -4.99
